Source: patent US20160128926A1, “COMPOSITIONS AND METHODS FOR TREATING NAILS, CLAWS, AND HOOFS” (TOPICAL SOLUTIONS, INC., priority 2013, published 2016)

What was measured:
[1] = test system: Prostanoid F receptor family and the Prostanoid E1 receptor family; assay: R-SAT functional assay (Reference Example 2), cited as the method for Example 2; assay type: cell-based; conditions: 23 Days
Text: Without intending to be limited by theory, there are two principal prostaglandin receptor families that control nail growth: the Prostanoid F receptor family and the Prostanoid E1 receptor family. Potential at these receptors in measured in two types of assays-binding assays and functional assays. The functional assay is described herein and the binding assay is above as Reference Example 1.
There are many functional assays available, for example, growth in Swiss 3T3 cells. Preferred is the R-SAT system. R-SAT is a cell-based assay system where genes are transferred to cultured cells. The functional activity of the gene products, or potential drug targets, are then evaluated through signal transduction pathways that lead to cellular growth. The growth signals are reported using marker gene technologies. Thus, effects of drugs on potential drug targets can be efficiently detected as changes in color or fluorescence. R-SAT enables the efficient screening of large compound libraries for identification of new chemistries at given targets, as well as detailed pharmacological testing of compounds at a wide range of targets, as described in MESSIER, T., DORMAN, C. M.; BRAUNEROSBORNE, H.; EUBANKS, D. & BRANN, M. R. (1995) Pharmacol. and Toxicol. 76 308-311, incorporated herein by reference.
was tested according to the method of Reference Example 2.

[2] = target: T1, hFP prostaglandin receptor (Homo sapiens, UniProt P43088); assay: Competition binding assay (Reference Example 1), cited as the method for Example 1
T1 construct: expressed in transfected cells; host or cells: COS 7 cells transiently transfected (pCR 3.1 vector); the summary sentence instead says stably transfected CHO-KI cells
T1 sequence (P43088 whole entry): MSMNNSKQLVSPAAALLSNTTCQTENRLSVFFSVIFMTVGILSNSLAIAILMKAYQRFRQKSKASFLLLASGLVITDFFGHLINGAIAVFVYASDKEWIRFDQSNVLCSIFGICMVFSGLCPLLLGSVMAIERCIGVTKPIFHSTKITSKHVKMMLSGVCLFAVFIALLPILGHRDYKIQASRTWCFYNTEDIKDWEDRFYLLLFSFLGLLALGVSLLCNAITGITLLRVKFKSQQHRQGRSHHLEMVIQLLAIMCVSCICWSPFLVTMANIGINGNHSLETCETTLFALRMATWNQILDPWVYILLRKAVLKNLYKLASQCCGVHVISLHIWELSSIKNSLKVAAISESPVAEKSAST

Row | Average Grades ([2]; 23 Days) | Average Grades ([2]; 25 Days) | Average Grades ([2]; 26 Days) | Structure (SMILES) | Average Grades [1]
1 |  |  |  | COC(=O)CCCCCC[C@@H]1[C@@H](CCC(O)CSc2ccccc2Br)[C@H](O)C[C@@H]1O (stereo partly shown) [Example 2] | 0.1
2 | 0.4 | 0.1 | 0.7 | CC(C)OC(=O)CCCCCC[C@@H]1[C@@H](CCC(O)CSc2ccccc2)[C@H](O)C[C@@H]1O (stereo partly shown) [Example 1] | 
